For orientation: MIC means the lowest concentration found to suppress growth. High values mean a need for much substance, low ones inhibition by little substance. The ED50 is the midpoint of the dose-response relation.

Holding throughout (format): functional
Experiment [1] relates to Bacillus subtilis. In words: Antibacterial activity against Bacillus subtilis ATCC 530 after 24 hrs by NCCLS method. Conditions: ATCC 530, 24 h.
Experiment [2] deals with Staphylococcus aureus. The experiment is described as follows: Antibacterial activity against Staphylococcus aureus ATCC 25923 after 24 hrs by NCCLS method. The conditions noted are these: ATCC 25923, 24 h.
Experiment [3] relates to Pseudomonas aeruginosa. In words: Antibacterial activity against Pseudomonas aeruginosa ATCC 27853 after 24 hrs by NCCLS method. The conditions noted are these: ATCC 27853, 24 h.
Experiment [4] deals with Escherichia coli. In words: Antibacterial activity against Escherichia coli ATCC 25922 after 24 hrs by NCCLS method. Conditions: ATCC 25922, 24 h.
Experiment [5] deals with Escherichia coli. In words: Antibacterial activity against Escherichia coli infected in mouse.
Experiment [6] relates to Escherichia coli. The experiment is described as follows: Antibacterial activity against Escherichia coli ATCC 25922.
In experiment [7] the test system is Enterococcus faecalis. The experiment is described as follows: Antibacterial activity against Enterococcus faecalis.
In experiment [8] the test system is Staphylococcus aureus. The experiment is described as follows: Antibacterial activity against Staphylococcus aureus ATCC 29213.
Experiment [9] relates to Escherichia coli. The experiment is described as follows: Antibacterial activity against Escherichia coli.
The subject of experiment [10] is Pseudomonas aeruginosa. In words: Antibacterial activity against Pseudomonas aeruginosa ATCC 27853.
Experiment [11] deals with Staphylococcus aureus. In words: Antibacterial activity against methicillin-resistant Staphylococcus aureus N315.
The subject of experiment [12] is Staphylococcus aureus. The experiment is described as follows: Antibacterial activity against Staphylococcus aureus ATCC 25923.
In experiment [13] the test system is Acinetobacter baumannii. In words: Antibacterial activity against Acinetobacter baumannii.
Experiment [14] has as its system Klebsiella pneumoniae. The experiment is described as follows: Antibacterial activity against Klebsiella pneumoniae.
Experiment [15] has as its system Pseudomonas aeruginosa. In words: Antibacterial activity against Pseudomonas aeruginosa.

Values after ≈ are worked out from the molar mass of the structure shown.

As to `COc1ccc(Oc2c(/C=N/NC(=O)Cn3c([N+](=O)[O-])cnc3C)c(C)nn2-c2ccc(C)cc2)cc1`, the MIC in [1], in experiment [2], in experiment [3] and in experiment [4] was 3.12 to 50 mg/L (≈ 6.2 to 99.3 µM) each time.

As to `Cc1nn(-c2ccccc2)c(Oc2ccc(F)cc2)c1/C=N/NC(=O)Cn1c([N+](=O)[O-])cnc1C`, the MIC in experiment [1], in experiment [2], in experiment [3] and in experiment [4] was 3.12 to 50 mg/L (≈ 6.53 to 105 µM) each time.

Regarding `CCn1cc(C(=O)O)c(=O)c2cc(F)c(N3CCN(CCn4c([N+](=O)[O-])cnc4C)CC3)nc21`, the 50% effective dose (ED50) in [5] lay in the range of 3.5 to 13.2 mg/kg.

For the compound `Cc1nn(-c2ccccc2)c(Oc2ccccc2)c1/C=N/NC(=O)Cn1c([N+](=O)[O-])cnc1C`, the MIC in [1], in experiment [2], in [3] and in experiment [4] was 3.12 to 50 mg/L (≈ 6.79 to 109 µM) in each case.

In turn, `CCn1cc(C(=O)OC)c(=O)c2cc(F)c(N3CCN(CCn4c([N+](=O)[O-])cnc4C)CC3)nc21` yielded an ED50 in experiment [5] of 3.5 to 13.2 mg/kg.

As to `Cc1ccc(-n2nc(C)c(/C=N/NC(=O)Cn3c([N+](=O)[O-])cnc3C)c2Oc2ccccc2)cc1`, the minimal inhibitory concentration (MIC) in experiment [1], in [2], in experiment [3] and in experiment [4] was 3.12 to 50 mg/L (≈ 6.59 to 106 µM) in each case.

In the case of `CCn1cc(C(=O)O)c(=O)c2cc(F)c(N3CCNCC3)nc21` [ENOXACIN], in [5], it took a dose of 4.22 mg/kg to reach the 50% effect level (ED50).

For the compound `COc1ccc(Oc2c(/C=N/NC(=O)Cn3c([N+](=O)[O-])cnc3C)c(C)nn2-c2ccccc2)cc1`, the MIC in experiment [1], in experiment [2], in [3] and in experiment [4] was 3.12 to 50 mg/L (≈ 6.37 to 102 µM) throughout.

In experiment [5], `CCn1cc(C(=O)O)c(=O)c2cc(F)c(N3CCN(CCn4c([N+](=O)[O-])cnc4C)CC3)cc21` came in with an ED50 of 2.56 to 3.88 mg/kg.

In experiment [5], `COC(=O)c1cn(C2CC2)c2cc(N3CCN(CCn4c([N+](=O)[O-])cnc4C)CC3)c(F)cc2c1=O` gave an ED50 of 3.5 to 13.2 mg/kg.

As for `Cc1ncc([N+](=O)[O-])n1CC(O)CN1C(=O)c2cccc3c(N4CCCC4)ccc(c23)C1=O` (configuration not stated), the MIC in [6], in experiment [7], in [8], in experiment [9], in experiment [10] and in experiment [11] was 69 to 1140 µM (≈ 31 to 512 µg/mL) throughout. In addition, the MIC in [12], in experiment [13], in experiment [14] and in experiment [15] was 69 to 1140 µM (≈ 31 to 512 µg/mL) throughout.

Turning to `Cc1ccc(-n2nc(C)c(/C=N/NC(=O)Cn3c([N+](=O)[O-])cnc3C)c2Oc2ccc(Cl)cc2)cc1`, the MIC in experiment [1], in experiment [2], in experiment [3] and in experiment [4] was 3.12 to 50 mg/L (≈ 6.14 to 98.4 µM) in each case.

`Cc1ccc(-n2nc(C)c(/C=N/NC(=O)Cn3c([N+](=O)[O-])cnc3C)c2Oc2ccc(F)cc2)cc1`: the MIC in [1], in experiment [2], in [3] and in experiment [4] was 3.12 to 50 mg/L (≈ 6.35 to 102 µM) in each case.

As to `Cc1ccc(Oc2c(/C=N/NC(=O)Cn3c([N+](=O)[O-])cnc3C)c(C)nn2-c2ccccc2)cc1`, the MIC in experiment [1], in [2], in [3] and in experiment [4] was 3.12 to 50 mg/L (≈ 6.59 to 106 µM) in each case.

As for `CCN1CCN(c2ccc3c4c(cccc24)C(=O)N(CC(O)Cn2c([N+](=O)[O-])cnc2C)C3=O)CC1` (configuration not stated), the MIC in experiment [6], in experiment [7], in [8], in [9], in experiment [10] and in experiment [11] was 13 to 1020 µM (≈ 6.4 to 502 µg/mL) throughout. Besides, the MIC in experiment [12], in experiment [13], in experiment [14] and in experiment [15] was 13 to 1020 µM (≈ 6.4 to 502 µg/mL) in each case.

Regarding `CCn1cc(C(=O)OC)c(=O)c2cc(F)c(N3CCN(CCn4c([N+](=O)[O-])cnc4C)CC3)cc21`, the ED50 in [5] lay in the range of 3.5 to 13.2 mg/kg.

With `Cc1ncc([N+](=O)[O-])n1CC(O)CN1C(=O)c2cccc3c(N4CCN(CCO)CC4)ccc(c23)C1=O` (configuration not stated), the MIC in experiment [6], in experiment [7], in experiment [8], in [9], in experiment [10] and in experiment [11] was 13 to 1020 µM (≈ 6.61 to 519 µg/mL) in each case. Besides, the minimum inhibitory concentration (MIC) in [12], in experiment [13], in experiment [14] and in experiment [15] was 13 to 1020 µM (≈ 6.61 to 519 µg/mL) each time.

With `CCOC(=O)c1cn(CC)c2nc(N3CCN(CCn4c([N+](=O)[O-])cnc4C)CC3)c(F)cc2c1=O`, the ED50 in experiment [5] was 3.5 to 13.2 mg/kg.

Consider `CCCCCCCCCCCCN1CCN(c2ccc3c4c(cccc24)C(=O)N(CC(O)Cn2c([N+](=O)[O-])cnc2C)C3=O)CC1` (configuration not stated), for which the MIC in experiment [6], in [7], in [8], in [9], in experiment [10] and in experiment [11] was 13 to 1020 µM (≈ 8.23 to 645 µg/mL) in each case. The MIC in experiment [12], in experiment [13], in [14] and in experiment [15] was 13 to 1020 µM (≈ 8.23 to 645 µg/mL) each time.

Regarding `Cc1ncc([N+](=O)[O-])n1CC(O)CN1C(=O)c2cccc3c(N4CCOCC4)ccc(c23)C1=O` (configuration not stated), the MIC in [6], in [7], in experiment [8], in [9], in experiment [10] and in experiment [11] was 69 to 1140 µM (≈ 32.1 to 531 µg/mL) in each case. The minimum inhibitory concentration (MIC) in [12], in experiment [13], in experiment [14] and in experiment [15] was 69 to 1140 µM (≈ 32.1 to 531 µg/mL) throughout.

`CCOC(=O)c1cn(CC)c2cc(N3CCN(CCn4c([N+](=O)[O-])cnc4C)CC3)c(F)cc2c1=O` displayed an ED50 in experiment [5] of 3.5 to 13.2 mg/kg.

With `C#CCN1CCN(c2ccc3c4c(cccc24)C(=O)N(CC(O)Cn2c([N+](=O)[O-])cnc2C)C3=O)CC1` (configuration not stated), the MIC in [6], in experiment [7], in [8], in experiment [9], in experiment [10] and in experiment [11] was 13 to 1020 µM (≈ 6.53 to 513 µg/mL) in each case. Moreover, the MIC in experiment [12], in experiment [13], in experiment [14] and in [15] was 13 to 1020 µM (≈ 6.53 to 513 µg/mL) each time.

`CCCCN1CCN(c2ccc3c4c(cccc24)C(=O)N(CC(O)Cn2c([N+](=O)[O-])cnc2C)C3=O)CC1` (configuration not stated): the MIC in [6], in [7], in experiment [8], in experiment [9], in experiment [10] and in [11] was 13 to 1020 µM (≈ 6.77 to 531 µg/mL) in each case. The MIC in [12], in experiment [13], in experiment [14] and in experiment [15] was 13 to 1020 µM (≈ 6.77 to 531 µg/mL) each time.

In experiment [5], `Cc1ncc([N+](=O)[O-])n1CCN1CCN(c2cc3c(cc2F)c(=O)c(C(=O)O)cn3C2CC2)CC1` yielded an ED50 of 2.56 to 3.88 mg/kg.

For `Cc1ncc([N+](=O)[O-])n1CC(O)CN1C(=O)c2cccc3c(N4CCN(CC#N)CC4)ccc(c23)C1=O` (configuration not stated), the MIC in [6], in [7], in [8], in [9], in experiment [10] and in [11] was 13 to 1020 µM (≈ 6.55 to 514 µg/mL) each time. Moreover, the MIC in experiment [12], in experiment [13], in experiment [14] and in experiment [15] was 13 to 1020 µM (≈ 6.55 to 514 µg/mL) each time.

`CCOC(=O)c1cn(C2CC2)c2cc(N3CCN(CCn4c([N+](=O)[O-])cnc4C)CC3)c(F)cc2c1=O` yielded an ED50 in experiment [5] of 3.5 to 13.2 mg/kg.

Source of the values: ChEMBL document CHEMBL4304773, “Nitroimidazole-containing compounds and their antibacterial and antitubercular activities” (2019).
